Literature values as cited in publication PMC8513935.
Each block holds one compound with its values, some of them ahead of it.

Key:
[1] = experimental, compiled by the authors from the literature (the ESI cites the sources)
[2] = derived by the authors as gas->solvent minus gas->water (a hypothetical dry solvent; the ESI), not a two-phase measurement
[3] = log P octanol/water from commercial databases, averaged (the ESI); conditions: Octanol (wet), 25 C

Compound: CC(C)(C)Cl
- log K of transfer, gas to solvent ([1]; 1,2-Dichloroethane, 25 C): 2.62 log10 K
- log K of transfer, gas to solvent ([1]; 2-Methylpropan-2-ol, 25 C): 2.16 log10 K
- log K of transfer, gas to solvent ([1]; Butan-1-ol, 25 C): 2.17 log10 K
- log K of transfer, gas to solvent ([1]; CCl4, 25 C): 2.68 log10 K
- log K of transfer, gas to solvent ([1]; Chlorobenzene, 25 C): 2.61 log10 K
- log K of transfer, gas to solvent ([1]; Cyclohexanone, 25 C): 2.66 log10 K
- log K of transfer, gas to solvent ([1]; Diethyl Ether, 25 C): 2.48 log10 K
- log K of transfer, gas to solvent ([1]; Hexadecane, 25 C): 2.27 log10 K
- log K of transfer, gas to solvent ([1]; Hexane, 25 C): 2.51 log10 K
- log K of transfer, gas to solvent ([1]; Propan-2-ol, 25 C): 2.05 log10 K
- log K of transfer, gas to solvent ([1]; Tetrahydrofuran, 25 C): 2.5 log10 K
- log K of transfer, gas to solvent ([1]; Water, 25 C): -0.8 log10 K
- log K of transfer, water to solvent ([2]; 1,2-Dichloroethane, 25 C): 3.42 log10 K
- log K of transfer, water to solvent ([2]; 2-Methylpropan-2-ol, 25 C): 2.96 log10 K
- log K of transfer, water to solvent ([2]; Butan-1-ol, 25 C): 2.97 log10 K
- log K of transfer, water to solvent ([2]; CCl4, 25 C): 3.48 log10 K
- log K of transfer, water to solvent ([2]; Chlorobenzene, 25 C): 3.41 log10 K
- log K of transfer, water to solvent ([2]; Cyclohexanone, 25 C): 3.46 log10 K
- log K of transfer, water to solvent ([2]; Diethyl Ether, 25 C): 3.28 log10 K
- log K of transfer, water to solvent ([2]; Hexadecane, 25 C): 3.07 log10 K
- log K of transfer, water to solvent ([2]; Hexane, 25 C): 3.31 log10 K
- log K of transfer, water to solvent ([2]; Propan-2-ol, 25 C): 2.85 log10 K
- log K of transfer, water to solvent ([2]; Tetrahydrofuran, 25 C): 3.3 log10 K
- log K of transfer, water to solvent [3]: 2.58 log10 K

Compound: CCCCCCCCCCCCCCCCO
- log K of transfer, gas to solvent ([1]; Decan-1-ol, 25 C): 9.86 log10 K
- log K of transfer, gas to solvent ([1]; Di-n-butyl ether, 25 C): 9.63 log10 K
- log K of transfer, gas to solvent ([1]; Diethyl Ether, 25 C): 9.91 log10 K
- log K of transfer, gas to solvent ([1]; Hexadecane, 25 C): 8.65 log10 K
- log K of transfer, gas to solvent ([1]; Hexan-1-ol, 25 C): 9.93 log10 K
- log K of transfer, gas to solvent ([1]; Octan-1-ol, 25 C): 9.9 log10 K
- log K of transfer, gas to solvent ([1]; Propan-2-ol, 25 C): 10 log10 K
- log K of transfer, gas to solvent ([1]; Water, 25 C): 2.02 log10 K
- log K of transfer, water to solvent ([2]; Decan-1-ol, 25 C): 7.84 log10 K
- log K of transfer, water to solvent ([2]; Di-n-butyl ether, 25 C): 7.61 log10 K
- log K of transfer, water to solvent ([2]; Diethyl Ether, 25 C): 7.89 log10 K
- log K of transfer, water to solvent ([2]; Hexadecane, 25 C): 6.63 log10 K
- log K of transfer, water to solvent ([2]; Hexan-1-ol, 25 C): 7.92 log10 K
- log K of transfer, water to solvent ([2]; Octan-1-ol(dry), 25 C): 7.88 log10 K
- log K of transfer, water to solvent ([2]; Propan-2-ol, 25 C): 8.03 log10 K
- log K of transfer, water to solvent [3]: 7.32 log10 K

Compound: CCCCCCl
- log K of transfer, gas to solvent ([1]; Di-n-butyl ether, 25 C): 3.51 log10 K
- log K of transfer, gas to solvent ([1]; Hexadecane, 25 C): 3.22 log10 K
- log K of transfer, gas to solvent ([1]; Hexane, 25 C): 3.5 log10 K
- log K of transfer, gas to solvent ([1]; Propanone, 25 C): 3.56 log10 K
- log K of transfer, gas to solvent ([1]; Tetrahydrofuran, 25 C): 4.16 log10 K
- log K of transfer, gas to solvent ([1]; Water, 25 C): 0.05 log10 K
- log K of transfer, water to solvent ([2]; Acetone, 25 C): 3.51 log10 K
- log K of transfer, water to solvent ([2]; Di-n-butyl ether, 25 C): 3.46 log10 K
- log K of transfer, water to solvent ([2]; Hexadecane, 25 C): 3.17 log10 K
- log K of transfer, water to solvent ([2]; Hexane, 25 C): 3.45 log10 K
- log K of transfer, water to solvent ([2]; Tetrahydrofuran, 25 C): 4.11 log10 K
- log K of transfer, water to solvent [3]: 3.11 log10 K

Compound: O=C1CCCCN1
- log K of transfer, gas to solvent ([1]; Hexadecane, 25 C): 4.18 log10 K
- log K of transfer, gas to solvent ([1]; Water, 25 C): 6.97 log10 K
- log K of transfer, water to solvent ([2]; Hexadecane, 25 C): -2.79 log10 K
- log K of transfer, water to solvent [3]: -0.465 log10 K

Results, then the compound that gave them:

- log K of transfer, gas to solvent ([1]; Di-n-butyl ether, 25 C): 4.12 log10 K
- log K of transfer, gas to solvent ([1]; Hexadecane, 25 C): 3.7 log10 K
- log K of transfer, gas to solvent ([1]; Methanol, 25 C): 4.23 log10 K
- log K of transfer, gas to solvent ([1]; Water, 25 C): 2.25 log10 K
- log K of transfer, water to solvent ([2]; Di-n-butyl ether, 25 C): 1.87 log10 K
- log K of transfer, water to solvent ([2]; Hexadecane, 25 C): 1.45 log10 K
- log K of transfer, water to solvent ([2]; Methanol, 25 C): 1.98 log10 K
- log K of transfer, water to solvent [3]: 2.04 log10 K
Compound: CCCC(=O)CCC

- log K of transfer, gas to solvent ([1]; Butan-1-ol, 25 C): 1.26 log10 K
- log K of transfer, gas to solvent ([1]; Hexadecane, 25 C): 1.31 log10 K
- log K of transfer, gas to solvent ([1]; Hexane, 25 C): 1.45 log10 K
- log K of transfer, gas to solvent ([1]; Perfluoroalkane, 25 C): 0.888 log10 K
- log K of transfer, gas to solvent ([1]; Propan-1-ol, 25 C): 1.15 log10 K
- log K of transfer, gas to solvent ([1]; Propan-2-ol, 25 C): 1.16 log10 K
- log K of transfer, gas to solvent ([1]; Water, 25 C): -0.55 log10 K
- log K of transfer, water to solvent ([2]; Butan-1-ol, 25 C): 1.81 log10 K
- log K of transfer, water to solvent ([2]; Hexadecane, 25 C): 1.86 log10 K
- log K of transfer, water to solvent ([2]; Hexane, 25 C): 2 log10 K
- log K of transfer, water to solvent ([2]; Perfluoroalkane, 25 C): 1.44 log10 K
- log K of transfer, water to solvent ([2]; Propan-1-ol, 25 C): 1.7 log10 K
- log K of transfer, water to solvent ([2]; Propan-2-ol, 25 C): 1.71 log10 K
- log K of transfer, water to solvent [3]: 1.72 log10 K
Compound: C1CC1
